Experimental data taken from PubChem BioAssay (NCI).
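Each compound was tested at five concentrations against cells in 96-well plates for 48 hours. GI50 = concentration required for 50% inhibition of growth. The concentration for full growth arrest is given as TGI.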

What was measured:
Experiment in all cases: growth of human tumour cells (NCI), 48 h
HCT-15 colon = test system: HCT-15 colon
EKVX NSCLC = test system: EKVX NSCLC
SF-295 CNS = test system: SF-295 CNS
HOP-92 NSCLC = test system: HOP-92 NSCLC
M14 melanoma = test system: M14 melanoma
RPMI-8226 leukemia = test system: RPMI-8226 leukemia
OVCAR-4 ovarian = test system: OVCAR-4 ovarian
SK-MEL-28 melanoma = test system: SK-MEL-28 melanoma
CAKI-1 renal = test system: CAKI-1 renal
COLO 205 colon = test system: COLO 205 colon
HS 578T breast = test system: HS 578T breast
RXF 393 renal = test system: RXF 393 renal
HCC-2998 colon = test system: HCC-2998 colon
MDA-MB-231 breast = test system: MDA-MB-231 breast
ACHN renal = test system: ACHN renal
HL-60(TB) leukemia = test system: HL-60(TB) leukemia
OVCAR-8 ovarian = test system: OVCAR-8 ovarian
SK-MEL-2 melanoma = test system: SK-MEL-2 melanoma
SN12C renal = test system: SN12C renal
OVCAR-5 ovarian = test system: OVCAR-5 ovarian
CCRF-CEM leukemia = test system: CCRF-CEM leukemia
NCI-H460 lung = test system: NCI-H460 lung
UACC-257 melanoma = test system: UACC-257 melanoma
A549 NSCLC = test system: A549 NSCLC
SF-268 CNS = test system: SF-268 CNS
MOLT-4 leukemia = test system: MOLT-4 leukemia
SNB-75 CNS = test system: SNB-75 CNS
SK-OV-3 ovarian = test system: SK-OV-3 ovarian

**Q.** How did the GI50 (HCT-15 colon) turn out when `COC(=O)c1cc(-c2ccc(OC)cc2)[nH]c1N/N=C/c1c(Cl)cccc1Cl` was run?
**A.** 204 nM

**Q.** What about the TGI (HCT-15 colon) of the same molecule?
**A.** 1490 nM

**Q.** What about the GI50 (EKVX NSCLC) of the same molecule?
**A.** 224 nM

**Q.** What about the TGI (EKVX NSCLC) of the same molecule?
**A.** 3230 nM

**Q.** And the GI50 (SF-295 CNS)?
**A.** 124 nM

**Q.** What about the TGI (SF-295 CNS) of the same molecule?
**A.** 1490 nM

**Q.** And the GI50 (HOP-92 NSCLC)?
**A.** 206 nM

**Q.** And the TGI (HOP-92 NSCLC)?
**A.** 2500 nM

**Q.** What about the GI50 (M14 melanoma) of the same molecule?
**A.** 196 nM

**Q.** What about the TGI (M14 melanoma) of the same molecule?
**A.** 1100 nM

**Q.** And the GI50 (RPMI-8226 leukemia)?
**A.** 187 nM

**Q.** What about the TGI (RPMI-8226 leukemia) of the same molecule?
**A.** 575 nM

**Q.** What about the GI50 (OVCAR-4 ovarian) of the same molecule?
**A.** 659 nM

**Q.** And the TGI (OVCAR-4 ovarian)?
**A.** > 53600 nM

**Q.** And the GI50 (SK-MEL-28 melanoma)?
**A.** 387 nM

**Q.** And the TGI (SK-MEL-28 melanoma)?
**A.** > 100000 nM

**Q.** And the GI50 (CAKI-1 renal)?
**A.** 351 nM

**Q.** What about the TGI (CAKI-1 renal) of the same molecule?
**A.** 15500 nM

**Q.** What about the GI50 (COLO 205 colon) of the same molecule?
**A.** 846 nM

**Q.** What about the TGI (COLO 205 colon) of the same molecule?
**A.** 2930 nM

**Q.** What about the GI50 (HS 578T breast) of the same molecule?
**A.** 190 nM

**Q.** And the TGI (HS 578T breast)?
**A.** 2820 nM

**Q.** What about the GI50 (RXF 393 renal) of the same molecule?
**A.** 142 nM

**Q.** What about the TGI (RXF 393 renal) of the same molecule?
**A.** 332 nM

**Q.** What about the GI50 (HCC-2998 colon) of the same molecule?
**A.** 118 nM

**Q.** And the TGI (HCC-2998 colon)?
**A.** 536 nM

**Q.** What about the GI50 (MDA-MB-231 breast) of the same molecule?
**A.** 462 nM

**Q.** What about the TGI (MDA-MB-231 breast) of the same molecule?
**A.** 3240 nM

**Q.** What about the GI50 (ACHN renal) of the same molecule?
**A.** 316 nM

**Q.** What about the TGI (ACHN renal) of the same molecule?
**A.** 4420 nM

**Q.** What about the GI50 (HL-60(TB) leukemia) of the same molecule?
**A.** 235 nM

**Q.** And the TGI (HL-60(TB) leukemia)?
**A.** 574 nM

**Q.** What about the GI50 (OVCAR-8 ovarian) of the same molecule?
**A.** 442 nM

**Q.** And the TGI (OVCAR-8 ovarian)?
**A.** 5160 nM

**Q.** What about the GI50 (SK-MEL-2 melanoma) of the same molecule?
**A.** 377 nM

**Q.** What about the TGI (SK-MEL-2 melanoma) of the same molecule?
**A.** 8200 nM

**Q.** What about the GI50 (SN12C renal) of the same molecule?
**A.** 507 nM

**Q.** And the TGI (SN12C renal)?
**A.** 18700 nM

**Q.** And the GI50 (OVCAR-5 ovarian)?
**A.** 1490 nM

**Q.** And the TGI (OVCAR-5 ovarian)?
**A.** 8370 nM

**Q.** What about the GI50 (CCRF-CEM leukemia) of the same molecule?
**A.** 312 nM

**Q.** What about the TGI (CCRF-CEM leukemia) of the same molecule?
**A.** 3390 nM

**Q.** What about the GI50 (NCI-H460 lung) of the same molecule?
**A.** 201 nM

**Q.** And the TGI (NCI-H460 lung)?
**A.** 992 nM

**Q.** And the GI50 (UACC-257 melanoma)?
**A.** 409 nM

**Q.** And the TGI (UACC-257 melanoma)?
**A.** 9170 nM

**Q.** And the GI50 (A549 NSCLC)?
**A.** 361 nM

**Q.** And the TGI (A549 NSCLC)?
**A.** 4480 nM

**Q.** What about the GI50 (SF-268 CNS) of the same molecule?
**A.** 203 nM

**Q.** What about the TGI (SF-268 CNS) of the same molecule?
**A.** 10400 nM

**Q.** And the GI50 (MOLT-4 leukemia)?
**A.** 415 nM

**Q.** What about the GI50 (SNB-75 CNS) of the same molecule?
**A.** 161 nM

**Q.** And the TGI (SNB-75 CNS)?
**A.** 725 nM

**Q.** What about the GI50 (SK-OV-3 ovarian) of the same molecule?
**A.** 188 nM
